Assay results: patent US6570010B2, “Inclusion compounds of vanillyl alcohol derivative in cyclodextrin and compositions containing the same” (Takasago International Corporation, priority 2000, dated 2003)

Assay: Solubility in water of 20° C.
Assay type: physicochemical
Settings: wt. %
Text: In this table, vanillyl-n-butyl ether will be abbreviated as VBE.

Solubility of VBE in terms of concentration: <0.002%
SMILES: CCCCOCc1ccc(O)c(OC)c1 [VBE, vanillyl-n-butyl ether]
